Experimental data taken from publication PMC3545992, “Trisubstituted Pyrazolopyrimidines as Novel Angiogenesis Inhibitors” (PLoS ONE, 2013).
Like-named read-outs stand apart in the source and are kept apart here.

Tests used:
HUVECs [1] = experiment: Cell viability assay (CellTiter-Blue) in confluent HUVECs; assay type: cell-based, human; conditions: 30 µM, 16 h
Protocol: Figure 2 Cdk5 is expressed in HUVECs and HMEC-1 cells, and the compounds are not cytotoxic to endothelial cells at concentrations used in functional assays. A: Cdk5 protein expression in endothelial cells in comparison to human cortex. Cdk5 protein amount was analyzed by Western blot in samples of human cortex (HC), confluent HUVECs (HU) and HMEC-1 (HM). β-actin served as a loading control and for normalization of protein amount. Relative quantification (left panel) and one representative image (right panel) of three individual blots are shown. Note the much lower protein loading in the HC sample in the right panel. (n = 3, mean ± SEM, p>0.05, One Way ANOVA, Dunnett). B: Confluent HUVECs were treated for 16 h with 10 or 30 µM of the indicated compounds or left untreated as control. After addition of CellTiter-BlueTM Reagent, cells were incubated for 4 h and fluorescence was measured at 560 nm (n = 3, mean ± SEM, * p<0.05, One Way ANOVA, Dunnett).
HUVECs were seeded in 96-well plates. After reaching confluency, the cells were treated for 16 h with the indicated compounds or left untreated as control. After addition of CellTiter-Blue^TM Reagent (Promega Corporation, Madison, WI, USA), cells were incubated for additional 4 h and fluorescence was measured at 560 nm in a plate-reading photometer (SpectraFluor Plus; Tecan, Crailsheim, Germany).

HMEC-1 cells = experiment: Crystal violet proliferation assay; assay type: cell-based, human; conditions: HMEC-1, 72 h, read-out: IC50 endothelial cell proliferation
Protocol: HMEC-1 cells were seeded to a density of 1,500 cells/well. After 24 h of incubation, a zero point control was stained with crystal violet. The remaining cells were left untreated as positive control or treated with 0.3-1-3-10–30 µM of the indicated compounds. After 72 h additional incubation, relative proliferation was determined by crystal violet staining and quantified as absorption at 550 nm.
HMEC-1 were seeded into 96-well-plates (1,500 cells/well). After 24 h, the cells were stimulated with the indicated compounds. At the same time point, cells in a reference plate were stained with crystal violet, serving as initial cell number. After 72 hours of stimulation, cells were fixed and stained with crystal-violet solution for 10 minutes, washed with water, and air dried. Crystal violet was eluted with dissolving buffer and absorbance was measured at 550 nm (Tecan Sunrise Absorbance reader, TECAN, Crailsheim, Germany). In a parallel series of experiments, cells seeded at the same cell density as in the proliferation assays were treated with 30 µM of the respective compound for 72 h. Afterwards, 10 µg/ml propidium iodide was added for 30 min to counterstain cells for membrane integrity. Phase contrast and fluorescence images were obtained with an inverted Nikon microscope (Ti, Nikon, Düsseldorf, Germany) equipped with a 10x objective.

HUVECs [2] = experiment: Chemotaxis assay in FCS gradient (µ-slides Chemotaxis); assay type: cell-based, human; conditions: for chemotaxis of endothelial cells (in words): 10 µM; for inhibition at 10 µM: Homo sapiens, HUVEC, read-out: inhibition of chemotaxis in accumulative distance
Protocol: Figure 5 LGR 1404, 1406 and 1407 decrease chemotaxis of endothelial cells. Chemotaxis of HUVECs in the presence or absence of 10 µM of the indicated compounds was determined in µ-slides Chemotaxis. A: Quantitative evaluation of accumulated and euclidean distance, velocity and y-forward migration index (n = 3, mean ± SEM, * p<0.05, One Way ANOVA, Dunnett). B: Representative cell tracking plots of untreated and treated cells.
The effect of the LGR compounds on endothelial cell chemotaxis was determined using Collagen IV coated μ-slides Chemotaxis (ibidi, Martinsried, Germany). HUVECs (5×10^6 cells per ml) were seeded into the observation channel of the slides according to the manual of the manufacturer, and the cells were allowed to attach for 4 hours. Then, the chambers of the chemotaxis slide were completely filled with serum-free medium M 199; and growth medium containing 30% FCS was added to one chamber in order to generate an FCS-gradient from 0% to […]. 10 µM of the indicated compounds were added both to the M199 and to the 30% FCS. Chemotaxis was observed over 20 hours by live-cell imaging with a Zeiss LSM 510 META confocal microscope equipped with an incubator stage (EMBLem, Heidelberg, Germany). A time series was collected taking 1 picture every 10 minutes. For cell tracking and data analysis, the manual tracking plug-in (Fabrice Cordelieres) and the Chemotaxis and Migration Tool (Version 1.01, ibidi, Martinsried, Germany) for ImageJ were used. Euclidean distance (direct distance from the starting point to the end point) was used as an indicator of directionality of movement, accumulative distance (sum of all migrated distances from track to track) and velocity (mean velocity of every cell calculated as ratio between track to track distance and time) were used as a measure for total motility.

Aurora kinase A = target: T1, Aurora kinase A (Homo sapiens, UniProt O14965); experiment: In vitro kinase profile (ProQinase); assay type: biochemical
T1 construct: purchased ProQinase (Freiburg, Germany)
T1 sequence (O14965 1-403): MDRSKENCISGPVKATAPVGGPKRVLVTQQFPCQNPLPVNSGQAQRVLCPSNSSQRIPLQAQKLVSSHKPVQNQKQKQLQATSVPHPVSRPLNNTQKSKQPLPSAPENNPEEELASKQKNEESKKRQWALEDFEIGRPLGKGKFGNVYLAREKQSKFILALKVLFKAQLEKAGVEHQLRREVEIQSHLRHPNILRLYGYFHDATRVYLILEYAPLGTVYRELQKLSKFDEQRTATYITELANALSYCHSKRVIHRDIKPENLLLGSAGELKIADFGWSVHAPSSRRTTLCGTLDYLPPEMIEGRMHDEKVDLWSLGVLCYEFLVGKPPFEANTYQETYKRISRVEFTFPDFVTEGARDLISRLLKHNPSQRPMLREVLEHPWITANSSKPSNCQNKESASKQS
Protocol: (§1) Therefore, it was of interest to see which kinases, especially which Cdks, are inhibited by those compounds. The kinase profiling was performed by ProQinase (Freiburg, Germany) for LGR 1406 and 1407. For LGR 1404 kinase profiling has recently been published previously. LGR 1406 and 1407 were tested for their IC50 in a panel of 24 kinases, including the Cdk1, Cdk2, Cdk4, Cdk5, Cdk6, Cdk7 and Cdk9. The other kinases tested were PTK6, EGFR, FAK, FGFR1 and FGFR2, NLK, PAK4, VEGFR1 and VEGFR2, MEK1, ROCK1, RAF1, ALK, RSK3, AURKA, and AMPKα1.

Cdk2/CycE = target: T2, Cdk2/CycE (Homo sapiens, UniProt P24941); experiment: In vitro kinase profile (ProQinase); assay type: biochemical
T2 construct: purchased ProQinase (Freiburg, Germany)
Protocol: as §1

Cdk5/p25 = target: T3, Cdk5/p25 (Homo sapiens, UniProt Q00535); experiment: In vitro kinase profile (ProQinase); assay type: biochemical
T3 construct: purchased ProQinase (Freiburg, Germany)
Protocol: as §1

Cdk6/CycD1 = target: T4, Cdk6/CycD1 (Homo sapiens, UniProt Q00534); experiment: In vitro kinase profile (ProQinase); assay type: biochemical
T4 construct: purchased ProQinase (Freiburg, Germany)
Protocol: as §1

Cdk7/CycH/MAT1 = target: T5, Cdk7/CycH/MAT1 (Homo sapiens, UniProt P50613); experiment: In vitro kinase profile (ProQinase); assay type: biochemical
T5 construct: purchased ProQinase (Freiburg, Germany)
Protocol: as §1

Cdk9/CycT = target: T6, Cdk9/CycT (Homo sapiens, UniProt P50750); experiment: In vitro kinase profile (ProQinase); assay type: biochemical
T6 construct: purchased ProQinase (Freiburg, Germany)
Protocol: as §1

T6 sequence (P50750 whole entry): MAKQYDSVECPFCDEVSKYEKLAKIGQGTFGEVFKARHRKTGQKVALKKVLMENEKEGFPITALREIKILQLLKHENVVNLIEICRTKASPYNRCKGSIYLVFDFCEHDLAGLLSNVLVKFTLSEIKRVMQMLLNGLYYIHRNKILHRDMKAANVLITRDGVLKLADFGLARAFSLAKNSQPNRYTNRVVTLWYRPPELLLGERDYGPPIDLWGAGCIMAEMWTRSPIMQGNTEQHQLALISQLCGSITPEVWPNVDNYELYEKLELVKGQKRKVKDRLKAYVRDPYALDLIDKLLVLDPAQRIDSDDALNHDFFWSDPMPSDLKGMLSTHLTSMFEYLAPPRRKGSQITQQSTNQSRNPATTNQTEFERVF
T6 sequence (O60563 whole entry partner): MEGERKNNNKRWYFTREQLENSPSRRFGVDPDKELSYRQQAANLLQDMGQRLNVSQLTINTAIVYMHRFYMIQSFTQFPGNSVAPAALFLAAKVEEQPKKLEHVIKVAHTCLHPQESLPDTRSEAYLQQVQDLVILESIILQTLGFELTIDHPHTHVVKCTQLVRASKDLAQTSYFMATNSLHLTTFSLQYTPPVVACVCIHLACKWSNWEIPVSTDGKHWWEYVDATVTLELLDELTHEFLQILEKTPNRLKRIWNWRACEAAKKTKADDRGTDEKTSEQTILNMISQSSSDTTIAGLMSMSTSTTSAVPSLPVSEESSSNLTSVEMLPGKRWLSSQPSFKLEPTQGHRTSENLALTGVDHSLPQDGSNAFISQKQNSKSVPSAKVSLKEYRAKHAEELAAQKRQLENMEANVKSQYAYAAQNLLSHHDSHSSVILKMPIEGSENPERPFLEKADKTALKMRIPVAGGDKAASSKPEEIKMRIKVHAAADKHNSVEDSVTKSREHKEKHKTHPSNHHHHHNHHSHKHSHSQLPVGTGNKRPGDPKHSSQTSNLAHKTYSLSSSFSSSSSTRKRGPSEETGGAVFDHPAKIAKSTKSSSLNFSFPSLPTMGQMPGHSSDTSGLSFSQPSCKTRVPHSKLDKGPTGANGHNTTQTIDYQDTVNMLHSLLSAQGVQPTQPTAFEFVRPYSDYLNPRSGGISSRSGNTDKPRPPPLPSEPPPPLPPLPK
T3 sequence (Q00535 whole entry): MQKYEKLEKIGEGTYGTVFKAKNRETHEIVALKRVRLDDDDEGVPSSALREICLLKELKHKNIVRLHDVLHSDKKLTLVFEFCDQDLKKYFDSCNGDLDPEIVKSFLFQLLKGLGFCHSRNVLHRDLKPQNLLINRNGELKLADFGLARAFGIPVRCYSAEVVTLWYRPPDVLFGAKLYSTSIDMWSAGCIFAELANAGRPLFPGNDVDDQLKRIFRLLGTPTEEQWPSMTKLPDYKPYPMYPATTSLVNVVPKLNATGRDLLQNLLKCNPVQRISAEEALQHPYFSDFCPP
T3 sequence (Q15078 99-307 partner limits assumed): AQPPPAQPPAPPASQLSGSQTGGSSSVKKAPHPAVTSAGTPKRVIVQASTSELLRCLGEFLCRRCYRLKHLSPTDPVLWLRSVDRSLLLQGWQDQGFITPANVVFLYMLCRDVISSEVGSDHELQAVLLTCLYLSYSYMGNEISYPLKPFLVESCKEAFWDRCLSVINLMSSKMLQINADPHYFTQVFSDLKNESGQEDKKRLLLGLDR
T4 sequence (Q00534 whole entry): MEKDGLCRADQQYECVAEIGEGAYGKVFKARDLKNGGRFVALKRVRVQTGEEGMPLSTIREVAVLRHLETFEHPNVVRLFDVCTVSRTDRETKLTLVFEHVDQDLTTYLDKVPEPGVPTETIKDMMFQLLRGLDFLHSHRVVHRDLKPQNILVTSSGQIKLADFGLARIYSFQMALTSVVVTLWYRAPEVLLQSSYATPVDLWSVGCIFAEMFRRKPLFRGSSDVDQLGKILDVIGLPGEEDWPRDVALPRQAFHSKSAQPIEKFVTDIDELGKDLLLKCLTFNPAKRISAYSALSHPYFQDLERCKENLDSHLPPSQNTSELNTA
T4 sequence (P24385 whole entry partner): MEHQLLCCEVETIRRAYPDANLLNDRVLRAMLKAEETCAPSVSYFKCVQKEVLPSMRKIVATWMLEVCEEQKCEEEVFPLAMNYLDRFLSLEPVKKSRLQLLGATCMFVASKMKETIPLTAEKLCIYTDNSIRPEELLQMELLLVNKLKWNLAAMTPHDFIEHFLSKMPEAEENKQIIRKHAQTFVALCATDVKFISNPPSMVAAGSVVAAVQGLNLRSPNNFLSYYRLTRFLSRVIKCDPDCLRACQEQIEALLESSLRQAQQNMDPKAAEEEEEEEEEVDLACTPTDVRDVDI
T5 sequence (P50613 whole entry): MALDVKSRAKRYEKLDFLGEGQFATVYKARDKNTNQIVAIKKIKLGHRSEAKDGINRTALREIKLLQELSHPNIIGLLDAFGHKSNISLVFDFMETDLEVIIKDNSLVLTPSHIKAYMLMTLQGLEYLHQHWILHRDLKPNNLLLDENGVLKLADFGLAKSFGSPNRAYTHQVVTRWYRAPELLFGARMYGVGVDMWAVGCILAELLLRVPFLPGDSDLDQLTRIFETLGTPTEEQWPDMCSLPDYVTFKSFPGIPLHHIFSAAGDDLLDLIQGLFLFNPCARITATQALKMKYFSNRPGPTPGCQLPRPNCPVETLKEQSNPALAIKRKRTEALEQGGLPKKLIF
T5 sequence (P51946 whole entry partner): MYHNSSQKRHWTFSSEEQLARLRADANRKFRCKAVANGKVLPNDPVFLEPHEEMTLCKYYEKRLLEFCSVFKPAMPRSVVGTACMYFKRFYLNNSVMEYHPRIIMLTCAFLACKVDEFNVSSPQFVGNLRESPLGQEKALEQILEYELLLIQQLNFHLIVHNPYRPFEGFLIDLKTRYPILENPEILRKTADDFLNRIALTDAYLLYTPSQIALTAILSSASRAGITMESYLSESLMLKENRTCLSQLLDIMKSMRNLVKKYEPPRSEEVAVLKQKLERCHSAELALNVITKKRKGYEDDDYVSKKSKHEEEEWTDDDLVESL
T5 sequence (P51948 whole entry partner): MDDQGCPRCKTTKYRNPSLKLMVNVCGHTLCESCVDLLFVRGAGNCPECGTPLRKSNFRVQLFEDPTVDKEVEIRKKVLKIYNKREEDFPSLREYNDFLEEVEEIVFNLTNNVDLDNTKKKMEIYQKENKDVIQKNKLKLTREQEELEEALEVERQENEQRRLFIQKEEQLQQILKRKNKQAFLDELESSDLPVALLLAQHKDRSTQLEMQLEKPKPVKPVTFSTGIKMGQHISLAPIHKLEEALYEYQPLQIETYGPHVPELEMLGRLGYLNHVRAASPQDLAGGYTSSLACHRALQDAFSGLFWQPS

| SMILES | cell viability in comparison to control (HUVECs [1]) | IC50 (HMEC-1 cells; Homo sapiens) | chemotaxis of endothelial cells (in words) (HUVECs [2]) | inhibition at 10 µM (HUVECs [2]) | IC50 (Aurora kinase A) | IC50 (Cdk2/CycE) | IC50 (Cdk5/p25) | IC50 (Cdk6/CycD1) | IC50 (Cdk7/CycH/MAT1) | IC50 (Cdk9/CycT) | IC50 (HMEC-1 cells) |
| --- | --- | --- | --- | --- | --- | --- | --- | --- | --- | --- | --- |
| CC(C)c1n[nH]c2c(NCc3ccccc3)nc(NC3CCC(N)CC3)nc12 (stereo not shown) [LGR 1407, 5-[(4-E-aminocyclohexyl)amino]-7-benzylamino-3-isopropyl-1(2)H-pyrazolo[4,3-d]pyrimidine] | weak but significant decrease of viability | 3.66 µM | decrease | 60% | ≤ 10 µM | 0.99 µM | 1.6 µM | 91 µM | > 100 µM | 1.9 µM | – |
| CC[C@H](CO)Nc1nc(NCc2ccccc2)c2n[nH]c(C(C)C)c2n1 [LGR 1404, 7-Benzylamino-5(R)-[(1-hydroxymethyl)propylamino]-3-isopropyl-1(2)H-pyrazolo[4,3-d]pyrimidine] | weak but significant decrease of viability | 7.72 µM | decrease | 50% | – | – | – | – | – | – | – |
| CC(C)c1n[nH]c2c(NCc3ccccc3)nc(NC3CCCCC3N)nc12 (stereo not shown) [LGR 1406, 5-[(2-E/Z-aminocyclohexyl)amino]-7-benzylamino-3-isopropyl-1(2)H-pyrazolo[4,3-d]pyrimidine] | weak but significant decrease of viability | ~1 µM | decrease | 70% | < 10 µM | 0.59 µM | 0.44 µM | > 100 µM | > 100 µM | 1 µM | 0.93 µM |
